The subject of one data set is Colon tumor cell line. Briefly: MTT antiproliferation assay, colon tumor cells. Format: cell-based. An excerpt: (§1) MTT, a water soluble tetrazolium salt, is converted to an insoluble purple formazan when dissolved by cleavage of the tetrazolium ring by dehydrogenase enzymes in active mitochondria. […] This method was used to quantitate proliferation in order to determine activity of potential chemotherapeutic compounds.
(§2) All cells were maintained in RPMI 1640 (Life Technologies, Gaithersburg, Mdi) containing 10% heat-inactivated Fetal Bovine Serum, penicillin /streptomycin and supplemented with L-glutamine.
(§3) Cells were plated in 96-well tissue culture plates at the following densities:
(§4) Cells were allowed to adhere overnight at 37° C., 5% CO2.
(§5) The cells were washed with fresh media and the compounds added to the cells in a final volume of 100 μl. The cells plus compound were allowed to incubate at 37° C., 5% CO2 for approximately 72 hours.
(§6) At the desired time point, 25 μl of MTT (10 mg/ml in HBSS) were added to each well. Plates were incubated at 37° C. for 2-4 hours. MTT and media were removed and 200 μl DMSO were added per well. Readings were taken at 570 nm.
On the technique in general: Tetrazolium assays rely on reduction of a dye to a coloured formazan, in cell work by metabolically active cells.

A further data set concerns Lung tumor cell line. Briefly: MTT antiproliferation assay, lung tumor cells. Format: cell-based.
From the text: as §1, §2, §3, §4, §5, §6

Another data set concerns leukemia cells. In words: Soft agar assay against leukemia cells. Format: cell-based.
A further data set deals with Breast tumor cell line. Briefly: MTT antiproliferation assay, breast tumor cells. Format: cell-based.
From the text: as §1, §2, §3, §4, §5, §6

A further data set concerns Prostate tumor cell line. In words: MTT antiproliferation assay, prostate tumor cells. Format: cell-based.
From the text: as §1, §2, §3, §4, §5, §6

Data set [1] deals with rat hepatoma cells ATCC CRL-1548. Briefly: Cytostatic activity on rat hepatoma cells (Cell Titer 96 Aqueous). Format: cell-based. The conditions noted are these: read-out: IC50 (cytostatic effect). Here is the method:
(a) To determine the cytostatic activity, rat hepatoma cells were used which were obtained from the strain collection American Type Culture Collection under the number ATCC CRL-1548, Jo No.223 and 228 The strain was kept in the “MEM (EAGLE) with Glutamax” medium [GIBCO BRL No.4109-028] with 10% fetal calf serum [GIBCO BRL No. 10270-106] and 10 μl of penicillin-streptomycin [GIBCO BRL No. 15140-114]/ml. 96-well microtiterplates [Greiner, No. 15140-114] were used. Each well was initially charged with 140 μl of culturing nutrient solution and in each case inoculated with 215,000 cells. The plates were then incubated at 37° C. and 5% CO2 for 20-24 hours. A dilution series of pluraflavins with concentrations of 100, 50, 25, 12.5, 6.25, 3.125, 1.5625, 0.7813, 0.3906, 0.195, 0.094, 0.047 and 0 μM, which had been prepared beforehand, was then pipetted in the corresponding order. After a further incubation time of 22 hours at 37° C. in an atmosphere of 5% CO2, the liquid medium was then aspirated. The cells that remained were stained with 100 μl of RPMI 1640 [GIBCO BRL No. 32404-014]/well and 20 μl of Cell Titer 96 Aqueous [PROMEGA No. G5430]/well. Light absorption at 590 nm was measured directly after addition and after 2 hours of incubation, as above. The cytostatic effect was calculated from the change in light absorption.

A short description of data set [2]: Chemical stability by medium / pH.
Data set [3] can be described thus: Solubility (appearance description).

We go through four molecules from patent US6500936B2, “Pluraflavins and derivatives thereof, process for their preparation and use thereof” (priority 2000, dated 2002).

By IC50 is commonly meant the point on the concentration scale where inhibition reaches its midpoint.

Values joined by “and” are separate entries in the source; they are usually repeats but may differ in a detail not shown here. Equal entries are not always repeated. Where two headings read alike, the source gives them in different places.

For `CN1CC[C@H](c2c(O)cc(O)c3c(=O)cc(-c4ccccc4Cl)oc23)[C@H](O)C1` [flavopiridol, reference compound], the 50% inhibitory concentration (IC50) is 30 nM with Colon tumor cell line (Colon cells, MTT, approximately 72 hours, read-out: IC50); 90 nM in the data set with Lung tumor cell line (Lung cells, MTT, approximately 72 hours, read-out: IC50); 500 nM and 600 nM with leukemia cells (soft agar assay, leukemia cells, read-out: IC50); 90 nM in the data set on Breast tumor cell line (Breast cells, MTT, approximately 72 hours, read-out: IC50); 80 nM with Prostate tumor cell line (Prostate cells, MTT, approximately 72 hours, read-out: IC50).

As to `CC1OC(OC2C(C)OC(c3ccc4c(c3O)C(=O)c3c(cc(COC5CC(C)(N)C(O)C(C)O5)c5c(=O)cc(C(C)(O)C(C)O)oc35)C4=O)CC2N(C)C)CC(O)C1O` (stereo not drawn) [pluraflavin B], in data set [1] (rat hepatoma cells, 22 hours incubation), the IC50 is less than 50 nM. Moreover, in data set [2], the “stability in the alkaline range” value is listed as “unstable”; the “stability in neutral and mildly acidic medium” value is reported as “stable”. Moreover, in data set [3], the “solubility in polar organic solvents” value is on record as “soluble” and the solubility in water result is “only sparingly soluble”.

`CC1OC(OC2C(C)OC(c3ccc4c(c3O)C(=O)c3c(cc(C(=O)O)c5c(=O)cc(C(C)(O)C(C)O)oc35)C4=O)CC2N(C)C)CC(O)C1O` (stereo not drawn) [pluraflavin E]: in data set [2], the “stability in the alkaline range” value is reported as “unstable”; the “stability in neutral and mildly acidic medium” value was “stable”; the “stability in the strongly acidic range” value is on record as “unstable”. Besides, in data set [3], the “solubility in polar organic solvents” value is “soluble” and the solubility in water result was “only sparingly soluble”.

For the molecule `CC1OC(OC2C(C)OC(c3ccc4c(c3O)C(=O)c3c(cc(COC5CC(C)(N)C(O)C(C)O5)c5c(=O)cc(C6(C)OC6C)oc35)C4=O)CC2N(C)C)CC(O)C1O` (stereo not drawn) [pluraflavin A], the concentration for half-maximal inhibition (IC50) with Colon tumor cell line (72 h) was 0.35 nM; in data set [1] (Rattus norvegicus, 22 h) it was less than 50 nM; in the data set on Lung tumor cell line (72 h) it was 3 nM; in the data set with leukemia cells, 60 nM; with Breast tumor cell line (72 h) it was less than 23 nM; in the data set on Prostate tumor cell line (72 h), 10 nM. Also, in data set [2], the “stability in the alkaline range” value is “unstable”. In data set [2], the “stability in neutral and mildly acidic medium” value was “stable”. Besides, the “stability in the strongly acidic range” value in data set [2] is listed as “unstable”.
